Like-named read-outs stand apart in the source and are kept apart here.
Experiments:
Assay in all cases: In vitro competitive activity-based protein profiling (gel-based, FP-Rh or HT-01 probe)
Type in all cases: biochemical
ABHD6 = molecular target: T1, ABHD6 (Mus musculus, UniProt Q8R2Y0); settings: for inhibition at 1 µM: 1 μM inhibitor, read-out: % Inhibition at 1 μM, C = ABHD6; for IC50: mouse brain membrane fraction or cell lysates, 30 min preincubation at 37° C., read-out: Mouse (IC50 value, nM) ABHD6; for inhibition at 10 µM: 10 μM inhibitor, read-out: % Inhibition at 10 μM, C = ABHD6
T1 construct: Proteomes (mouse brain membrane fraction or cell lysates); from tissue; host or cells: mouse brain membrane fraction (or cell lysates, not specified)
T1 sequence (Q8R2Y0 1-336): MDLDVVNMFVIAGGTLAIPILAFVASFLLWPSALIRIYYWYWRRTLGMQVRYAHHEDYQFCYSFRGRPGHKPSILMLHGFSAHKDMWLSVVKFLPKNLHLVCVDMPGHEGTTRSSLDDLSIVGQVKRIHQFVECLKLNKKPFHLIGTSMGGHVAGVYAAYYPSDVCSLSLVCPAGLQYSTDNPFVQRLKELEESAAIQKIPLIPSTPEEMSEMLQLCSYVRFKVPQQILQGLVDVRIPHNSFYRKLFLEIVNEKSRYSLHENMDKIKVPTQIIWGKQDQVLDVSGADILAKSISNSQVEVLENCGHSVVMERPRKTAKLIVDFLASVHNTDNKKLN
Method: (§1) In Vitro Competitive Activity-Based Protein Profiling.
(§2) Proteomes (mouse brain membrane fraction or cell lysates) (50 μL, 1.0 mg/mL total protein concentration) were preincubated with varying concentrations of inhibitors at 37° C. After 30 min, FP-Rh or HT-01 ([…], 50 μM in DMSO) was added and the mixture was incubated for another 30 min at 37° C. Reactions were quenched with SDS loading buffer (15 μL—4×) and run on SDS-PAGE. Following gel imaging, serine hydrolase activity was determined by measuring fluorescent intensity of gel bands corresponding to MAGL, ABHD6, FAAH, and PLA2G7 using ImageJ 1.43u software.

FAAH = molecular target: T2, FAAH (Mus musculus, UniProt O08914); settings: for inhibition at 1 µM: 1 μM inhibitor, read-out: % Inhibition at 1 μM, B = FAAH; for IC50: mouse brain membrane fraction or cell lysates, 30 min preincubation at 37° C., read-out: Mouse (IC50 value, nM) FAAH; for inhibition at 10 µM: 10 μM inhibitor, read-out: % Inhibition at 10 μM, B = FAAH
T2 construct: Proteomes (mouse brain membrane fraction or cell lysates); from tissue; host or cells: mouse brain membrane fraction (or cell lysates, not specified)
T2 sequence (O08914 1-579): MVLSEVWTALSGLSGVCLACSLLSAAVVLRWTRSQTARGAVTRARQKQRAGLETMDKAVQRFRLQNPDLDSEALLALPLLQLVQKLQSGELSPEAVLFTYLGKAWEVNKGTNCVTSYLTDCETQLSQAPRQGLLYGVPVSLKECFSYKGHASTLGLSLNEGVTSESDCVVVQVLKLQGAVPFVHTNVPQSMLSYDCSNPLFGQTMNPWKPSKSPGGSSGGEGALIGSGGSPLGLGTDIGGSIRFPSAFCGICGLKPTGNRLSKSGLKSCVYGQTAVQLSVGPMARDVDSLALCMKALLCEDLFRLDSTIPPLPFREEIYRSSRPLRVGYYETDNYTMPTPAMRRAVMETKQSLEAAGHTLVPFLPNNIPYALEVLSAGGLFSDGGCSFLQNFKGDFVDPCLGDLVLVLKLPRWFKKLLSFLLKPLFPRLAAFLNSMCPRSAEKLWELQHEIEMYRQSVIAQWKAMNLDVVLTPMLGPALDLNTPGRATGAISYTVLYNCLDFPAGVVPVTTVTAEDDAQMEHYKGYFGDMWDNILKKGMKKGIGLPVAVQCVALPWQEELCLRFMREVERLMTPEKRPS
Method: as §1, §2

MAGL = molecular target: T3, MAGL (Mus musculus, UniProt O35678); settings: for inhibition at 1 µM: 1 μM inhibitor; for IC50: mouse brain membrane fraction or cell lysates, 30 min preincubation at 37° C., read-out: Mouse (IC50 value, nM) MAGL; for inhibition at 10 µM: 10 μM inhibitor
T3 construct: Proteomes (mouse brain membrane fraction or cell lysates); from tissue; host or cells: mouse brain membrane fraction (or cell lysates, not specified)
T3 sequence (O35678 1-303): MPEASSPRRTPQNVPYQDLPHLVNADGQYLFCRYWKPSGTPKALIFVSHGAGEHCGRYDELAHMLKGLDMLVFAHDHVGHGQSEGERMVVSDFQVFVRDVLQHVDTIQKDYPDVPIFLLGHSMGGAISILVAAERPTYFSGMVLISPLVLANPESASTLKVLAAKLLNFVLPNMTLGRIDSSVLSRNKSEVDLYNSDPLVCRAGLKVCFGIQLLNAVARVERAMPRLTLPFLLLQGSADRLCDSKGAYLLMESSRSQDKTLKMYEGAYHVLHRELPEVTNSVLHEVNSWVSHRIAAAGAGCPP
Method: as §1, §2

PLA2G7 = molecular target: T4, PLA2G7 (Mus musculus, UniProt Q60963); settings: for inhibition at 1 µM: 1 μM inhibitor, read-out: % Inhibition at 1 μM, D = PLA2G7; for inhibition at 10 µM: 10 μM inhibitor, read-out: % Inhibition at 10 μM, D = PLA2G7
T4 construct: Proteomes (mouse brain membrane fraction or cell lysates); from tissue; host or cells: mouse brain membrane fraction (or cell lysates, not specified)
T4 sequence (Q60963 22-440): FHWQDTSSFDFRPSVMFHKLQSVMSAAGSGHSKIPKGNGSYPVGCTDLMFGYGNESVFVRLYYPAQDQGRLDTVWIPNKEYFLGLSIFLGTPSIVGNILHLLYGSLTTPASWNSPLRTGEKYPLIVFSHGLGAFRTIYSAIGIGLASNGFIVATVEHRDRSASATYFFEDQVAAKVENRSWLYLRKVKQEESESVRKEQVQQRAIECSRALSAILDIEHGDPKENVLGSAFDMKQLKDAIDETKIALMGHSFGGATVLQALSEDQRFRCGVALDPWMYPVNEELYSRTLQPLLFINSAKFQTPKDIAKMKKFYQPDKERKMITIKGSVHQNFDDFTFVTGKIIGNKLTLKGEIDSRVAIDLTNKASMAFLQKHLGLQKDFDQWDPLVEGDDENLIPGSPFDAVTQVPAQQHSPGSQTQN
Method: as §1, §2

Row | inhibition at 1 µM (ABHD6) | IC50 (ABHD6) | inhibition at 1 µM (FAAH) | IC50 (FAAH) | inhibition at 1 µM (MAGL) | IC50 (MAGL) | inhibition at 1 µM (PLA2G7) | inhibition at 10 µM (ABHD6) | inhibition at 10 µM (FAAH) | inhibition at 10 µM (MAGL) | inhibition at 10 µM (PLA2G7) | inhibition at 1 µM (ABHD6; gel-based competitive ABPP) | inhibition at 10 µM (ABHD6; gel-based competitive ABPP) | inhibition at 1 µM (FAAH; gel-based competitive ABPP) | inhibition at 10 µM (FAAH; gel-based competitive ABPP) | inhibition at 1 µM (MAGL; gel-based competitive ABPP) | inhibition at 10 µM (MAGL; gel-based competitive ABPP) | inhibition at 1 µM (PLA2G7; gel-based competitive ABPP) | inhibition at 10 µM (PLA2G7; gel-based competitive ABPP) | IC50 (PLA2G7; mouse brain membrane fraction or cell lysates, 30 min preincubation at 37° C.) | Compound
1 | > 75% | < 100 nM | > 75% | 100 to 1000 nM | > 75% | 100 to 1000 nM | > 75% | – | – | – | – | – | – | – | – | – | – | – | – | – | CNC(=O)c1cnn(C(=O)N2CCN(Cc3ccc(Cl)cc3)CC2)c1 [Example 223, 1-(4-(4-Chlorobenzyl)piperazine-1-carbonyl)-N-methyl-1H-pyrazole-4-carboxamide]
2 | > 75% | – | > 75% | – | > 75% | – | > 75% | > 75% | > 75% | > 75% | > 75% | – | – | – | – | – | – | – | – | – | O=C(N1CCN(Cc2ccccc2)CC1)n1cc(C(F)(F)F)cn1 [Example 152, (4-Benzylpiperazin-1-yl)(4-(trifluoromethyl)-1H-pyrazol-1-yl)methanone]
3 | < 25% | – | – | > 1000 nM | – | – | < 25% | > 75% | > 75% | < 25% | > 75% | – | – | – | – | – | – | – | – | – | O=C(c1cnn(C(=O)N2CCN(Cc3nccs3)CC2)c1)N1CCC1 [Example 91, Azetidin-1-yl(1-(4-(thiazol-2-ylmethyl)piperazine-1-carbonyl)-1H-pyrazol-4-yl)methanone]
4 | – | – | – | – | – | – | – | – | – | – | – | > 75% | > 75% | > 75% | > 75% | > 75% | > 75% | < 25% | > 75% | – | COc1cc(-c2ccccc2)ccc1CN1CCN(C(=O)n2cc(C(=O)N3CCCC3)cn2)CC1 [Example 290, (4-((3-Methoxybiphenyl-4-yl)methyl)piperazin-1-yl)(4-(pyrrolidine-1-carbonyl)-1H-pyrazol-1-yl)methanone]
5 | > 75% | < 100 nM | > 75% | < 100 nM | > 75% | < 100 nM | < 25% | > 75% | > 75% | > 75% | > 75% | – | – | – | – | – | – | – | – | – | N#Cc1cnn(C(=O)N2CCN(Cc3ccc(OCc4ccccc4)cc3)CC2)c1 [Example 21, 1-(4-(4-(Benzyloxy)benzyl)piperazine-1-carbonyl)-1H-pyrazole-4-carbonitrile]
6 | 25 to 75% | – | < 25% | – | 25 to 75% | – | < 25% | > 75% | > 75% | > 75% | 25 to 75% | – | – | – | – | – | – | – | – | – | Cc1cnn(C(=O)N2CCN(Cc3ccc(OCc4ccccc4)cc3)CC2)c1 [Example 20, (4-(4-(Benzyloxy)benzyl)piperazin-1-yl)(4-methyl-1H-pyrazol-1-yl)methanone]
7 | – | – | – | – | – | – | – | – | – | – | – | < 25% | – | < 25% | – | < 25% | – | < 25% | – | – | CCN(Cc1cccc(Cl)c1)C(=O)n1cc(C)cn1 [Example 245, N-(3-chlorobenzyl)-N-ethyl-4-methyl-1H-pyrazole-1-carboxamide]
8 | > 75% | – | > 75% | – | > 75% | – | < 25% | > 75% | > 75% | > 75% | > 75% | – | – | – | – | – | – | – | – | – | N#Cc1cnn(C(=O)N2CCN(Cc3ccc(-c4ccccc4)cc3OCc3ccccc3)CC2)c1 [Example 146, 1-(4-((3-(Benzyloxy)biphenyl-4-yl)methyl)piperazine-1-carbonyl)-1H-pyrazole-4-carbonitrile]
9 | – | – | – | – | – | – | – | – | – | – | – | > 75% | > 75% | > 75% | > 75% | > 75% | > 75% | > 75% | > 75% | – | N#Cc1cnn(C(=O)N2CCN(Cc3ccc(C(=O)N4CCCCC4)cc3Cl)CC2)c1 [Example 282, 1-(4-(2-Chloro-4-(piperidine-1-carbonyl)benzyl)piperazine-1-carbonyl)-1H-pyrazole-4-carbonitrile]
10 | – | < 100 nM | – | < 100 nM | – | < 100 nM | – | – | – | – | – | > 75% | – | > 75% | – | > 75% | – | 25 to 75% | – | 100 to 1000 nM | NC(=O)c1cnn(C(=O)N2CCN(Cc3cccc(Oc4ccccc4)c3)CC2)c1 [Example 286, 1-(4-(3-phenoxybenzyl)piperazine-1-carbonyl)-1H-pyrazole-4-carboxamide]
11 | > 75% | 100 to 1000 nM | < 25% | – | < 25% | – | 25 to 75% | 25 to 75% | 25 to 75% | 25 to 75% | > 75% | – | – | – | – | – | – | – | – | – | O=C(N1CCN(Cc2ccc(C(F)(F)F)cc2N2CCCC2)CC1)n1cc(-c2ccccc2C(F)(F)F)cn1 [Example 115, (4-(2-(Pyrrolidin-1-yl)-4-(trifluoromethyl)benzyl)piperazin-1-yl)(4-(2-(trifluoromethyl)phenyl)-1H-pyrazol-1-yl)methanone]
12 | > 75% | – | > 75% | – | > 75% | – | < 25% | > 75% | > 75% | > 75% | < 25% | – | – | – | – | – | – | – | – | – | O=C(N1CCN(Cc2ccc(-c3ccccc3)cc2OCc2ccccc2)CC1)n1cc(Cl)cn1 [Example 148, (4-((3-(Benzyloxy)biphenyl-4-yl)methyl)piperazin-1-yl)(4-chloro-1H-pyrazol-1-yl)methanone]
13 | – | – | – | – | – | – | – | < 25% | < 25% | < 25% | < 25% | – | – | – | – | – | – | – | – | – | CC(=O)N(C)CCN(C)C(=O)n1cc(C)cn1 [Example 170, N,4-Dimethyl-N-(2-(N-methylacetamido)ethyl)-1H-pyrazole-1-carboxamide]
